Results on 25 compounds are retold here after ChEMBL document CHEMBL5244255, “An insight on medicinal attributes of 1,2,4-triazoles” (Eur J Med Chem, 2020).

Data set [1] has as its target DNA gyrase (Escherichia coli, UniProt P0AES4+P0AES6). The experiment in a line: Inhibition of Escherichia coli DNA gyrase supercoiling activity by Microplate Assay kit method. It is filed as protein-complex assay.
The test system of data set [2] is Leishmania major. The experiment in a line: Antileishmanial activity against promastigotes stage of Leishmania major. Type of data set: functional, organism-based.
Data set [3] concerns Leishmania major. The data set can be described thus: Potency index, ratio of test compound IC50 to miltefosine IC50 for antileishmanial activity against promastigotes stage of leishmania major. It is filed as functional.
The subject of data set [4] is Leishmania major. The data set can be described thus: Potency index, ratio of test compound IC50 to amphotericin B IC50 for antileishmanial activity against promastigotes stage of leishmania major. It is filed as functional.
Data set [5] concerns Mus musculus. The data set can be described thus: Anticonvulsant activity in ip dosed mouse. It is filed as functional.
A short description of data set [6]: Protection index, ratio of TD50 for neurotoxicity in ip dosed mouse to ED50 for anticonvulsant activity in ip dosed mouse. The note with it: in vivo, read-out: Ratio TD50/ED50. Type of data set: toxicity, organism-based.
Data set [7] concerns Trypanosoma cruzi. The data set can be described thus: Trypanocidal activity against epimastigote stage of Trypanosoma cruzi. Type of data set: functional, organism-based.
Data set [8] relates to Trypanosoma cruzi. The experiment in a line: Trypanocidal activity against amastigote stage of Trypanosoma cruzi. Type of data set: functional, organism-based.
Data set [9] has as its system Candida albicans. The data set can be described thus: Antifungal activity against Candida albicans assessed as fungal growth inhibition incubated for 16 hrs. It is filed as functional.
Data set [10] concerns Staphylococcus aureus. The data set can be described thus: Antibacterial activity against Staphylococcus aureus assessed as bacterial growth inhibition incubated for 16 hrs. It is filed as functional.
Data set [11] concerns Acinetobacter haemolyticus. The experiment in a line: Antibacterial activity against Acinetobacter haemolyticus ATCC 19002 assessed as bacterial growth inhibition by double micro dilution method. Type of data set: functional.
Data set [12] has as its system Staphylococcus aureus. The experiment in a line: Antibacterial activity against Staphylococcus aureus ATCC 25923 assessed as bacterial growth inhibition by double micro dilution method. Type of data set: functional.
The subject of data set [13] is Enterococcus faecalis. The experiment in a line: Antibacterial activity against Enterococcus faecalis ATCC 29212 assessed as bacterial growth inhibition by double micro dilution method. It is filed as functional.
Data set [14] has as its system Klebsiella pneumoniae. The data set can be described thus: Antibacterial activity against Klebsiella pneumoniae ATCC 13883 assessed as bacterial growth inhibition by double micro dilution method. Type of data set: functional.
In data set [15] the test system is Pseudomonas aeruginosa. The data set can be described thus: Antibacterial activity against Pseudomonas aeruginosa ATCC 27853 assessed as bacterial growth inhibition by double micro dilution method. It is filed as functional.
Data set [16] relates to Escherichia coli. The experiment in a line: Antibacterial activity against Escherichia coli ATCC 25922 assessed as bacterial growth inhibition by double micro dilution method. Type of data set: functional.
The species named for data set [17] is Rattus norvegicus. The experiment in a line: Bronchodilator activity in Sprague-Dawley rat. It is filed as functional, organism-based.
In data set [18] the test system is Rattus norvegicus. The experiment in a line: Antiinflammatory activity in rat assessed as reduction in edema at 17 mg/kg, ip measured after 5 hrs relative to control. Type of data set: functional. Also noted: scale not given: the % may be the effect or the level left.
Data set [19] concerns the target Epidermal growth factor receptor (Homo sapiens, UniProt P00533). The data set can be described thus: Inhibition of EGFR (unknown origin) […] insect sf9 cells incubated for 1 hrs in presence of ATP.
Data set [20] can be described thus: Inhibition of BRAF V600E mutant (unknown origin) incubated for 25 mins in presence of ATP by ELISA assay. Also noted: species or system Homo sapiens.
Data set [21] has as its target Tubulin. The data set can be described thus: Inhibition of tubulin (unknown origin). Type of data set: protein-complex assay, Homo sapiens.
The test system of data set [22] is Mycobacterium tuberculosis. The experiment in a line: Antimycobacterial activity against Mycobacterium tuberculosis H37Rv measured after 7 days. The note with it: 168 h, time 7 day. Type of data set: functional.
Data set [23] concerns Plasmodium falciparum. The experiment in a line: microbe, parasite or virus in culture.
A short description of data set [24]: Inhibition of Mycobacterium tuberculosis shikimate dehydrogenase.
Data set [25] relates to Mycobacterium tuberculosis. The experiment in a line: Antimycobacterial activity against Mycobacterium tuberculosis H37Rv measured after 8 to 9 days. Type of data set: functional. The note with it: time 8-9 day.
Data set [26] deals with Mus musculus. The experiment in a line: Anticonvulsant activity in ip dosed mouse assessed as protection against PTZ-induced seizure. It is filed as functional.
Data set [27] deals with Staphylococcus aureus. The data set can be described thus: Antibacterial activity against Methicillin-resistant Staphylococcus aureus assessed as bacterial growth inhibition incubated for 24 hrs. It is filed as functional.
For data set [28], the system named is Staphylococcus aureus. The experiment in a line: Antibacterial activity against Staphylococcus aureus 6538 assessed as bacterial growth inhibition incubated for 24 hrs. It is filed as functional.
Data set [29] has as its system MCF7. The data set can be described thus: Anticancer activity against human MCF7 cells assessed a cell growth inhibition incubated for 48 hrs by SRB assay. It is filed as functional, cell-based. Particulars: MCF7, 48 h.
Data set [30] has as its system Plasmodium falciparum. The experiment in a line: Antimalarial activity against Chloroquine resistant Plasmodium falciparum W2. It is filed as functional, organism-based.
Data set [31] relates to Plasmodium falciparum. The data set can be described thus: Antimalarial activity against Plasmodium falciparum. Type of data set: functional, organism-based. The note with it: Plasmodium falciparum; read-out: IC50.
For data set [32], the target named is DNA topoisomerase II (Homo sapiens, UniProt P11388+Q02880). The experiment in a line: Inhibition of human Topoisomerase 2 incubated for 30 mins by ELISA assay. It is filed as protein assay.

Structures are written as SMILES. Converted amounts (≈) assume the structure as drawn.

Epidermal growth factor receptor, sequence (P00533 whole entry): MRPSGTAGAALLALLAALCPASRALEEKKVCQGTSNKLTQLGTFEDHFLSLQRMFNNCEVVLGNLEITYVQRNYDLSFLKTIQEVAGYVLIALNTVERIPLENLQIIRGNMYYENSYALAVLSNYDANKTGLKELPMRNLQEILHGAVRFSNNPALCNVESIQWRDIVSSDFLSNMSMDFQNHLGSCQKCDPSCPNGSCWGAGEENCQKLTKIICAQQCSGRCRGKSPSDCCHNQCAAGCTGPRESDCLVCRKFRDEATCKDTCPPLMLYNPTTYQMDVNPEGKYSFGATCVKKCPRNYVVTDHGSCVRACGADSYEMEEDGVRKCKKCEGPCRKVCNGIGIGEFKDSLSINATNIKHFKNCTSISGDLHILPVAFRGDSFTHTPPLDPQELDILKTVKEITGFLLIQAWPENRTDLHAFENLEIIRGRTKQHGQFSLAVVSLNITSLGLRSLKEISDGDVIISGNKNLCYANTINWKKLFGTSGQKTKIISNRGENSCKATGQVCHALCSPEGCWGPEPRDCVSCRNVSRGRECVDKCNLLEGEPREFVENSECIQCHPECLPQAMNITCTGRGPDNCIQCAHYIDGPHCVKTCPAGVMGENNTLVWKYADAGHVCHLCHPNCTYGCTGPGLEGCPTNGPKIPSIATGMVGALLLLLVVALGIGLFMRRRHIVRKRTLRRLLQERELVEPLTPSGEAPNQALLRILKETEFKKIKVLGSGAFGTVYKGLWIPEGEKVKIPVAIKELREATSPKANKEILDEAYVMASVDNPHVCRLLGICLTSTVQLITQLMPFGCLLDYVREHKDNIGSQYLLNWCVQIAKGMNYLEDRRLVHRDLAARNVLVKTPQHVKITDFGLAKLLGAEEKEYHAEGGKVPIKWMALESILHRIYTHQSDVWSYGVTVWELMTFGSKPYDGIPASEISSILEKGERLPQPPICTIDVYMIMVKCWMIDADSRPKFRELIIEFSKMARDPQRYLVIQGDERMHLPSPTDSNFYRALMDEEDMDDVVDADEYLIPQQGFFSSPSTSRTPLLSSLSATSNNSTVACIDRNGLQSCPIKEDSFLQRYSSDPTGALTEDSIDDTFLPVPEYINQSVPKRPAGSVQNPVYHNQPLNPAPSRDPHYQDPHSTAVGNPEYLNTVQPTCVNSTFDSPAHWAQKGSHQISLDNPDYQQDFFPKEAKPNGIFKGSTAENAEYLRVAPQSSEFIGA

Compound `CCn1cc(-c2nc(/N=C/c3ccc(Br)cc3)n[nH]2)c(=O)c2cc(Br)c(C)nc21` had a concentration for half-maximal inhibition (IC50) in [1] of 6.22 µM.
On to `CC(C)C(C(=O)O)N1C(N)=NNC1c1ccccc1O` (configuration not stated), for which, in data set [2], half-maximal inhibition (IC50) was put at 0.0312 µg/mL (≈ 0.112 µM). Moreover, the “Ratio IC50” value in [3] and in data set [4] was 36 each time.
Regarding `NC(=O)N1c2ccccc2C=Cc2ccccc21` [CARBAMAZEPINE], in [5], it took a dose of 11.8 mg/kg to reach the 50% effect level (ED50). The selectivity ratio in [6] is 6.4.
For `CCCCSC1NN=C(/C=C/C=C/c2ccc3c(c2)OCO3)N1C1CCCCC1` (configuration not stated), the IC50 in data set [7] was found to be 3.18 µM; in data set [8] it was 3.61 µM.
For `O=C(NCc1nnc(S)n1/N=C/c1ccc([N+](=O)[O-])cc1)c1ccccc1`, the MIC in [9] and in data set [10] was 3.12 µg/mL (≈ 8.17 µM) throughout.
`O=C(O)c1cn(C2CC2)c2cc(N3CCN(Cn4nc(CN5CCN(c6ccccc6)CC5)n(-c5ccccc5)c4=S)CC3)c(F)cc2c1=O`: the minimum inhibitory concentration (MIC) in [11], in data set [12], in data set [13], in [14], in [15] and in [16] was 0.125 µg/mL (≈ 0.18 µM) in each case.
Compound `O=c1c(-c2n[nH]c(=S)n2-c2ccccc2)c[nH]c2ncnn12` yielded an EC50 in [17] of 57.1 µM.
On to `COc1ccc(-c2cc(-c3nnc(SCC(=O)Nc4ccc(/C(C)=N/O)cc4)n3-c3ccccc3)c3cc(C)ccc3n2)cc1`, for which the Activity in data set [18] is recorded as 101%.
On to `O=c1[nH]nc2n1-c1ccc(OCc3ccc(F)cc3)cc1OCC2`, for which, in data set [5], the 50% effect level (ED50) was put at a dose of 26.3 mg/kg. Moreover, the selectivity ratio in data set [6] came out at 12.6.
For `COc1ccc(C(=O)n2nc(-c3ccncc3)nc2N)cc1`, the IC50 is 4.6 µM in data set [19], 1.8 µM in [20] and 0.872 µM in [21].
As to `O=[N+]([O-])c1ncn(CCCCNS(=O)(=O)c2sccc2Cl)n1`, in [22], the MIC is 3.13 µg/mL (≈ 8.56 µM).
In turn, `COc1ccccc1-n1c(S)nnc1-c1cc(S(N)(=O)=O)c(Cl)cc1N` showed an IC50 in [23] of 0.025 µg/mL (≈ 0.0607 µM).
`Clc1ccc(-c2nnc3sc(COc4ccc(Br)cc4)nn23)cc1` yielded a half-maximal inhibitory concentration (IC50) in [24] of 6.82 µg/mL (≈ 16.2 µM). Further, inhibition of growth in [25] (MIC) required 6.82 µg/mL (≈ 16.2 µM).
In [22], `CC[C@@H](CO)NCCN[C@@H](CC)CO` [ETHAMBUTOL] gave an MIC of 6.25 µg/mL (≈ 30.6 µM).
On to `CCCOc1ccc(-c2csc3nncn23)cc1`, for which, in [26], the ED50 is 63.4 mg/kg and the TD50 is 106 mg/kg. Moreover, in data set [6], the selectivity ratio came out at 1.9.
`NC1=NNC(c2ccccc2O)N1C(Cc1cc2ccccc2[nH]1)C(=O)O` (configuration not stated) showed a 50% inhibitory concentration (IC50) in data set [2] of 0.0312 µg/mL (≈ 0.0854 µM). For the same compound, the “Ratio IC50” value in [3] and in [4] was 36 each time.
Turning to `Nc1cc(Cl)c(S(N)(=O)=O)cc1-c1nnc(S)n1-c1ccccc1`, the midpoint of inhibition in [23], the IC50, lay at 0.023 µg/mL (≈ 0.0602 µM).
`FC(F)(F)c1cc(-c2nnc(Sc3cc(Cl)nc(Sc4ccccc4)n3)[nH]2)cc(C(F)(F)F)c1`: the MIC was found to be 0.43 µg/mL (≈ 0.805 µM) in data set [27] and 1.8 µM (≈ 0.961 µg/mL) in [28].
In turn, `CC/C(=C(\c1ccccc1)c1ccc(OCCN(C)C)cc1)c1ccccc1` [TAMOXIFEN] had a concentration for half-maximal inhibition (IC50) in [29] of 8.38 µg/mL (≈ 22.6 µM).
Consider `COc1ccc(Nc2cc(C)nc3nc(C(F)(F)F)nn23)cc1`, for which it took 0.023 µM to reach half-maximal inhibition in data set [30] (IC50).
Turning to `CC(C)SC1NN=C(/C=C/C=C/c2ccc3c(c2)OCO3)N1C1CCCCC1` (configuration not stated), the values for the 50% inhibitory concentration (IC50) in data set [7] and in data set [8] were 3.18 µM and 3.61 µM, respectively.
Take `C=C[C@H]1CN2CC[C@H]1C[C@H]2[C@H](O)c1ccnc2ccc(OC)cc12` [QUININE]: the IC50 in data set [23] was determined as 0.268 µg/mL (≈ 0.826 µM); in data set [31], 0.286 µM.
As for `O=C(CSc1nc2ccccc2n2cnnc12)Nc1ccc(S(=O)(=O)Nc2ccccn2)cc1`, the half-inhibitory concentration (IC50) in data set [32] came to 0.97 µM.
Take `COc1ccc(-c2cc(-c3nnc(SCC(=O)Nc4ccc(/C(C)=N/O)cc4)n3-c3ccccc3)c3ccccc3n2)cc1`: the Activity in data set [18] stood at 100%.
Turning to `CSc1nc(Cl)cc(Sc2nnc(-c3cc(C(F)(F)F)cc(C(F)(F)F)c3)[nH]2)n1`, the MIC in [27] is 0.75 µg/mL (≈ 1.59 µM); in data set [28], 1.8 µM (≈ 0.849 µg/mL).
